#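 48-hour exposure; five concentrations; linearly interpolated endpoints. GI50 = concentration required for 50% inhibition of growth. At the TGI there is no net growth.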
# Legend:
# Experiment in all cases: growth of human tumour cells (NCI), 48 h
# [1] = test system: 786-0 renal
# [2] = test system: A498 renal
# [3] = test system: A549 NSCLC
# [4] = test system: ACHN renal
# [5] = test system: BT-549 breast
# [6] = test system: CCRF-CEM leukemia
# [7] = test system: COLO 205 colon
# [8] = test system: DU-145 prostate
# [9] = test system: EKVX NSCLC
# [10] = test system: HCC-2998 colon
# [11] = test system: HCT-116 colon
# [12] = test system: HCT-15 colon
# [13] = test system: HL-60(TB) leukemia
# [14] = test system: HOP-62 NSCLC
# [15] = test system: HOP-92 NSCLC
# [16] = test system: HS 578T breast
# [17] = test system: HT29 colon
# [18] = test system: IGROV1 ovarian
# [19] = test system: K-562 leukemia
# [20] = test system: KM12 colon
# [21] = test system: LOX IMVI melanoma
# [22] = test system: M14 melanoma
# [23] = test system: MALME-3M melanoma
# [24] = test system: MCF7 breast
# [25] = test system: MDA-MB-231 breast
# [26] = test system: MDA-MB-435
# [27] = test system: MOLT-4 leukemia
# [28] = test system: NCI-H226 lung
# [29] = test system: NCI-H23 lung
# [30] = test system: NCI-H460 lung
# [31] = test system: NCI-H522 lung
# [32] = test system: NCI/ADR-RES ovarian
# [33] = test system: OVCAR-3 ovarian
# [34] = test system: OVCAR-4 ovarian
# [35] = test system: OVCAR-5 ovarian
# [36] = test system: OVCAR-8 ovarian
# [37] = test system: PC-3 prostate
# [38] = test system: RPMI-8226 leukemia
# [39] = test system: RXF 393 renal
# [40] = test system: SF-268 CNS
# [41] = test system: SF-295 CNS
# [42] = test system: SF-539 CNS
# [43] = test system: SK-MEL-2 melanoma
# [44] = test system: SK-MEL-28 melanoma
# [45] = test system: SK-MEL-5 melanoma
# [46] = test system: SK-OV-3 ovarian
# [47] = test system: SN12C renal
# [48] = test system: SNB-19 CNS
# [49] = test system: SNB-75 CNS
# [50] = test system: SR leukemia
# [51] = test system: SW-620 colon
# [52] = test system: T-47D breast
# [53] = test system: TK-10 renal
# [54] = test system: U251 CNS
# [55] = test system: UACC-257 melanoma
# [56] = test system: UACC-62 melanoma
# [57] = test system: UO-31 renal
# [58] = test system: CAKI-1 renal
smiles,measurement,setting,value
CC(=[N-])N1CCC[C@@H](Nc2c3ccccc3nc3ccccc23)C1.[Cl][Pt].[NH-]CCC[NH-],GI50,[1],3.89 µM
same,TGI,[1],> 24.8 µM
same,GI50,[2],221 nM
same,TGI,[2],0.656 µM
same,GI50,[3],32.5 nM
same,TGI,[3],> 100 µM
same,GI50,[4],159 nM
same,TGI,[4],2.47 µM
same,GI50,[5],2.9 µM
same,TGI,[5],64.7 µM
same,GI50,[6],1580 nM
same,TGI,[6],> 100 µM
same,GI50,[7],431 nM
same,TGI,[7],2.69 µM
same,GI50,[8],32.6 nM
same,TGI,[8],> 100 µM
same,GI50,[9],2170 nM
same,TGI,[9],36 µM
same,GI50,[10],1700 nM
same,TGI,[10],9.17 µM
same,GI50,[11],1280 nM
same,TGI,[11],> 100 µM
same,GI50,[12],2370 nM
same,TGI,[12],> 100 µM
same,GI50,[13],2040 nM
same,TGI,[13],> 100 µM
same,GI50,[14],1720 nM
same,TGI,[14],> 100 µM
same,GI50,[15],2210 nM
same,TGI,[15],8.36 µM
same,GI50,[16],3.33 µM
same,TGI,[16],> 31.4 µM
same,GI50,[17],440 nM
same,TGI,[17],> 100 µM
same,GI50,[18],577 nM
same,TGI,[18],> 100 µM
same,GI50,[19],375 nM
same,TGI,[19],> 100 µM
same,GI50,[20],2490 nM
same,TGI,[20],> 100 µM
same,GI50,[21],2250 nM
same,TGI,[21],> 21.9 µM
same,GI50,[22],3470 nM
same,TGI,[22],23.7 µM
same,GI50,[23],1490 nM
same,TGI,[23],4.51 µM
same,GI50,[24],357 nM
same,TGI,[24],> 100 µM
same,GI50,[25],2100 nM
same,TGI,[25],89.1 µM
same,GI50,[26],4.43 µM
same,TGI,[26],18.4 µM
same,GI50,[27],359 nM
same,TGI,[27],> 100 µM
same,GI50,[28],32.8 nM
same,TGI,[28],0.2 µM
same,GI50,[29],198 nM
same,TGI,[29],2.75 µM
same,GI50,[30],27.7 nM
same,TGI,[30],> 40.8 µM
same,GI50,[31],25.8 nM
same,TGI,[31],0.165 µM
same,GI50,[32],46 µM
same,TGI,[32],> 100 µM
same,GI50,[33],763 nM
same,TGI,[33],> 41.6 µM
same,GI50,[34],1250 nM
same,TGI,[34],38.9 µM
same,GI50,[35],2890 nM
same,TGI,[35],36.4 µM
same,GI50,[36],1040 nM
same,TGI,[36],> 100 µM
same,GI50,[37],3570 nM
same,TGI,[37],44.9 µM
same,GI50,[38],2420 nM
same,TGI,[38],> 100 µM
same,GI50,[39],1250 nM
same,TGI,[39],2.96 µM
same,GI50,[40],3.68 µM
same,TGI,[40],> 100 µM
same,GI50,[41],384 nM
same,TGI,[41],> 100 µM
same,GI50,[42],2530 nM
same,TGI,[42],18.1 µM
same,GI50,[43],2280 nM
same,TGI,[43],7.23 µM
same,GI50,[44],210 nM
same,TGI,[44],2.31 µM
same,GI50,[45],127 nM
same,TGI,[45],0.291 µM
same,GI50,[46],2.43 µM
same,TGI,[46],> 100 µM
same,GI50,[47],21.4 nM
same,GI50,[48],1490 nM
same,TGI,[48],> 100 µM
same,GI50,[49],2720 nM
same,TGI,[49],10.1 µM
same,GI50,[50],445 nM
same,TGI,[50],> 100 µM
same,GI50,[51],268 nM
same,TGI,[51],> 100 µM
same,GI50,[52],36.8 nM
same,TGI,[52],> 100 µM
same,GI50,[53],2.76 µM
same,TGI,[53],> 46.1 µM
same,GI50,[54],1580 nM
same,TGI,[54],> 100 µM
same,GI50,[55],2490 nM
same,TGI,[55],> 100 µM
same,GI50,[56],29.5 nM
same,TGI,[56],0.114 µM
same,GI50,[57],1780 nM
same,TGI,[57],9.21 µM
Clc1ccccc1CNc1c2ccccc2nc2ccccc12,GI50,[1],2.72 µM
same,TGI,[1],11 µM
same,GI50,[2],1750 nM
same,TGI,[2],6.94 µM
same,GI50,[3],2210 nM
same,TGI,[3],10.7 µM
same,GI50,[4],1760 nM
same,TGI,[4],6.89 µM
same,GI50,[5],4.17 µM
same,TGI,[5],12 µM
same,GI50,[58],2110 nM
same,TGI,[58],8.08 µM
same,GI50,[6],2740 nM
same,TGI,[6],50 µM
same,GI50,[7],1600 nM
same,TGI,[7],6.16 µM
same,GI50,[8],2450 nM
same,TGI,[8],8.58 µM
same,GI50,[9],2770 nM
same,TGI,[9],9.85 µM
same,GI50,[10],1500 nM
same,TGI,[10],5.57 µM
same,GI50,[11],1650 nM
same,TGI,[11],8.1 µM
same,GI50,[12],1690 nM
same,TGI,[12],6.85 µM
same,GI50,[13],2050 nM
same,TGI,[13],9.71 µM
same,GI50,[14],3620 nM
same,TGI,[14],12.8 µM
same,GI50,[15],1910 nM
same,TGI,[15],8.45 µM
same,GI50,[16],5.97 µM
same,TGI,[16],18.1 µM
same,GI50,[17],1670 nM
same,TGI,[17],9.02 µM
same,GI50,[18],1880 nM
same,TGI,[18],8.83 µM
same,GI50,[19],1480 nM
same,TGI,[19],41.7 µM
same,GI50,[20],2030 nM
same,TGI,[20],8.28 µM
same,GI50,[21],1570 nM
same,TGI,[21],5.93 µM
same,GI50,[22],2040 nM
same,TGI,[22],9.98 µM
same,GI50,[23],2710 nM
same,TGI,[23],9.1 µM
same,GI50,[24],1270 nM
same,TGI,[24],5.63 µM
same,GI50,[25],2390 nM
same,TGI,[25],10.2 µM
same,GI50,[26],1.96 µM
same,TGI,[26],8.14 µM
same,GI50,[27],1840 nM
same,TGI,[27],16.3 µM
same,GI50,[28],2220 nM
same,TGI,[28],10.1 µM
same,GI50,[29],1670 nM
same,TGI,[29],8.9 µM
same,GI50,[30],1700 nM
same,TGI,[30],6.19 µM
same,GI50,[31],5050 nM
same,TGI,[31],21.3 µM
same,GI50,[32],2.04 µM
same,TGI,[32],9.52 µM
same,GI50,[33],3390 nM
same,TGI,[33],10.5 µM
same,GI50,[34],2130 nM
same,TGI,[34],8.11 µM
same,GI50,[35],2160 nM
same,TGI,[35],9.09 µM
same,GI50,[36],2410 nM
same,TGI,[36],13.3 µM
same,GI50,[37],2240 nM
same,TGI,[37],11.9 µM
same,GI50,[39],1290 nM
same,TGI,[39],4.44 µM
same,GI50,[40],2.95 µM
same,TGI,[40],11.4 µM
same,GI50,[41],1590 nM
same,TGI,[41],7.31 µM
same,GI50,[42],1840 nM
same,TGI,[42],6.71 µM
same,GI50,[43],3260 nM
same,TGI,[43],12.5 µM
same,GI50,[44],2750 nM
same,TGI,[44],9.21 µM
same,GI50,[45],3090 nM
same,TGI,[45],9.34 µM
same,GI50,[46],5.41 µM
same,TGI,[46],12.6 µM
same,GI50,[47],1930 nM
same,TGI,[47],8.27 µM
same,GI50,[48],2280 nM
same,TGI,[48],8.96 µM
same,GI50,[49],2550 nM
same,TGI,[49],9.63 µM
same,GI50,[50],1890 nM
same,TGI,[50],6.99 µM
same,GI50,[51],1670 nM
same,TGI,[51],6.56 µM
same,GI50,[52],2300 nM
same,TGI,[52],13 µM
same,GI50,[53],3.98 µM
same,TGI,[53],11 µM
same,GI50,[54],2360 nM
same,TGI,[54],9.7 µM
same,GI50,[55],2990 nM
same,TGI,[55],11.5 µM
same,GI50,[56],2300 nM
same,TGI,[56],9.18 µM
same,GI50,[57],1350 nM
same,TGI,[57],6.96 µM
